According to patent US9115151B2, “Substituted 2,10-dihydro-9-oxa-1,2,4A-triazaphenanthren-3-ones and uses thereof” (AbbVie Inc., priority 2012, dated 2015):
Structures can show the parent of a compound that is named as a salt. Where two headings read alike, the source gives them in different places.

Tests used:
PKCθ = molecular target: T1, PKCθ (Homo sapiens, UniProt Q04759); test: In vitro enzyme assay (time-resolved fluorescence kinase assay), PKCθ, 100 μM ATP; format: biochemical
T1 construct: His6; purchased Millipore; host or cells: baculovirus in Sf21 cells
T1 sequence (Q04759 whole entry): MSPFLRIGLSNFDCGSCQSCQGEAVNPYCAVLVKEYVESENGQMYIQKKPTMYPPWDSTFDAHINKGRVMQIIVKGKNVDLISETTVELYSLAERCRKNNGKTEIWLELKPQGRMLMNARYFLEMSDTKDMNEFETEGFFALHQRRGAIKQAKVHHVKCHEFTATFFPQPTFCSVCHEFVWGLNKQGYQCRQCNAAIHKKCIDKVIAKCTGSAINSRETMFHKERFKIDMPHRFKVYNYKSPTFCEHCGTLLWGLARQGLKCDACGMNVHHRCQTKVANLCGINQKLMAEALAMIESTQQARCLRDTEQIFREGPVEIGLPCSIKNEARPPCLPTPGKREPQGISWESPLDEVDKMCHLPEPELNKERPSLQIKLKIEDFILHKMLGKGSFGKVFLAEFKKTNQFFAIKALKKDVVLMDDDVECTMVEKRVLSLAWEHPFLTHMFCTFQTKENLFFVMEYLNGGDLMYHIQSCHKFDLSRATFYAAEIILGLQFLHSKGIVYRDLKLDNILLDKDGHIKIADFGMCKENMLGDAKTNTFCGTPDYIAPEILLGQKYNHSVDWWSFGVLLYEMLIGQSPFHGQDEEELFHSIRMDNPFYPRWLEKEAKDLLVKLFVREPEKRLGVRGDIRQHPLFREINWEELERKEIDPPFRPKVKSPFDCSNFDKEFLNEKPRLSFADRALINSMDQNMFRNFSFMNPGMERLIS
Description: (§1) PKC kinase activity was assayed by time-resolved fluorescence in vitro kinase assay. Unless otherwise indicated, all reagents used for enzyme assays were obtained from Sigma. Specifically, 5 μL N- or C-terminal His6-tagged, recombinant, human PKC, expressed by baculovirus in Sf21 cells (Millipore) was mixed with 5 μL inhibitor (various concentrations, 5% final DMSO), 5 μL Bio-cdc peptide (Biotin-Ahx-[…], 2 μM final concentration, New England Peptide) and 5 μL of ATP (100 μM or 1000 μM final concentration) in 1× reaction buffer, 20 μL final volume.
(§2) Following a sixty minute incubation at room temperature, the reaction was quenched with 5 μL of 0.5 M EDTA pH 7.5.
(§3) Background counts from a minus enzyme control is subtracted from all data. Data (after background correction) are converted to percent activity by dividing by the signal obtained from PKC without drug sample.

PKCα = molecular target: T2, PKCα (Homo sapiens, UniProt P17252); test: In vitro enzyme assay (time-resolved fluorescence kinase assay), PKCα, 100 μM ATP; format: biochemical
T2 construct: His6; purchased Millipore; host or cells: baculovirus in Sf21 cells
Description: as §1, §2, §3

[1] = system: CD3/CD28 induced IL-2 in human T-Blasts; test: T-Blasts CD3/CD28 induced IL-2 assay; format: cell-based; conditions: read-out: CD3/CD28-stimulated IL2 in T-blasts EC50
Description: T-Blasts CD3/CD28 Induced IL-2 Assay
Human T-Blasts are generated using PHA following standard protocols. T-Blasts are freeze aliquoted and vials thawed as required. […] Seed 2×10^5/100 μL cell suspension per well in flat bottomed 96 well plate. Compound dilutions are prepared from 100% DMSO stocks. A total of 8 serial dilutions are made (1/3 in 100% DMSO). Compounds are diluted 1/50 in growth medium to prepare 4× stocks of each tested concentration. 50 μL from each 4× stock concentration is added to the 100 μL cell suspension and incubated for 30 minutes prior stimulus addition. A 4× stimulus stock is prepared using anti-CD3+anti-CD28 antibodies. Antibody mix is added to the cell/compounds suspension in 50 μL at 5 μg/mL final concentration. Compounds are tested in duplicates. Plates are transferred to 37° C./CO2 incubator for 24 hours. After incubation 130 μL of supernatant is collected for IL-2 determination while MTT toxicity analysis is performed on remaining cells/medium.

[2] = 100 μM ATP, read-out: PKCα enzyme IC50

Structure (SMILES) | IC50 (PKCθ) [nM] | IC50 (PKCα; [2]) [nM] | EC50 [1] [nM] | IC50 (PKCα) [nM]
Cc1ccc(F)cc1-c1cc2c(cc1NC1CNC1)N1C(=NNC(=O)C1C)CO2 (racemic) [Example 15] | < 250 | 1000 to 10000 | < 250 | –
CC1C(=O)NN=C2COc3cc(-c4cccc(OC(F)(F)F)c4)c(NC4CNC4)cc3N21 (racemic) [Example 16] | 250 to 1000 | 1000 to 10000 | < 250 | –
CC1C(=O)NN=C2COc3cc(-c4ccc(N(C)C)cc4)c(NC4CNC4)cc3N21 (racemic) [Example 19] | 250 to 1000 | 1000 to 10000 | < 250 | –
COc1cccc(-c2cc3c(cc2NC2CNC2)N2C(=NNC(=O)C2C)CO3)c1 (racemic) [Example 20] | < 250 | 1000 to 10000 | < 250 | –
CC1C(=O)NN=C2COc3cc(-c4ccc(OC(F)(F)F)cc4)c(NC4CNC4)cc3N21 (racemic) [Example 21] | 250 to 1000 | 1000 to 10000 | < 250 | –
CC1C(=O)NN=C2COc3cc(-c4ccc(C(C)(C)C)cc4)c(NC4CNC4)cc3N21 (racemic) [Example 26] | 250 to 1000 | 1000 to 10000 | < 250 | –
C[C@@H]1C(=O)NN=C2COc3cc(C(F)(F)F)c(NC4CNC4)cc3N21 (single isomer, unassigned) [Example 53-2, trifluoroacetic acid] | – | 1000 to 10000 | < 250 | –
C[C@@H]1C(=O)NN=C2COc3cc(C(F)(F)F)c(NC4(C)CNC4)cc3N21 (single isomer, unassigned) [Example 100-1, trifluoroacetic acid] | – | 1000 to 10000 | < 250 | –
C[C@@H]1C(=O)NN=C2COc3cc(C(F)(F)F)c([C@H](C)C4(C)CNC4)cc3N21 (single isomer, unassigned) [Example 147-2, trifluoroacetic acid] | 1000 to 10000 | 1000 to 10000 | – | –
CC1C(=O)NN=C2COc3cc(C(F)(F)F)c(NC4(C)CNC4)cc3N21 (stereo not drawn) [Example 81, 4-Methyl-6-(3-methyl-azetidin-3-ylamino)-7-trifluoromethyl-2,10-dihydro-9-oxa-1,2,4a-triaza-phenanthren-3-one] | – | 1000 to 10000 | 250 to 1000 | –
C[C@H]1C(=O)NN=C2COc3cc(C(F)(F)F)c(NC4(C)CNC4)cc3N21 [Example 100-2, (S)-1-Methyl-9-((3-methylazetidin-3-yl)amino)-8-(trifluoromethyl)-3,5-dihydrobenzo[5,6][1,4]oxazino[3,4-c][1,2,4]triazin-2(1H)-one trifluoacetic acid salt] | – | 250 to 1000 | 250 to 1000 | –
Cc1ccc(-c2cc3c(cc2[C@@H]2CCN(C)C[C@@H]2C)N2C(=NNC(=O)[C@H]2C)CO3)c(F)c1 [Example 200] | – | < 250 | < 250 | –
COc1ccc(-c2cc3c(cc2[C@@H]2CCN(C)C[C@@H]2C)N2C(=NNC(=O)[C@H]2C)CO3)c(F)c1 [Example 201] | – | – | < 250 | < 250
COc1cccc(-c2cc3c(cc2[C@@H]2CCN(C)C[C@@H]2C)N2C(=NNC(=O)[C@H]2C)CO3)c1F [Example 237, (R)-6-((3R,4R)-1,3-Dimethyl-piperidin-4-yl)-7-(2-fluoro-3-methoxy-phenyl)-4-methyl-2,10-dihydro-9-oxa-1,2,4a-triaza-phenanthren-3-one] | < 250 | – | < 250 | –
COc1ccc(F)c(-c2cc3c(cc2[C@@H]2CCN(C)C[C@@H]2C)N2C(=NNC(=O)[C@H]2C)CO3)c1 [Example 241] | < 250 | – | < 250 | –
C[C@@H]1C(=O)NN=C2COc3cc(-c4c(F)cccc4F)c([C@@H]4CCN(C)C[C@@H]4C)cc3N21 [Example 245, (R)-7-(2,6-Difluoro-phenyl)-6-((3R,4R)-1,3-dimethyl-piperidin-4-yl)-4-methyl-2,10-dihydro-9-oxa-1,2,4a-triaza-phenanthren-3-one] | – | 250 to 1000 | < 250 | –

More lines, main results first:

IC50 (PKCθ) [nM] | IC50 (PKCα; [2]) [nM] | EC50 [1] [nM] | Structure (SMILES) | IC50 (PKCα) [nM]
< 250 | 1000 to 10000 | < 250 | Cc1ccc(-c2cc3c(cc2NC2CNC2)N2C(=NNC(=O)C2C)CO3)c(F)c1 (racemic) [Example 12] | –
< 250 | 1000 to 10000 | < 250 | Cc1cc(F)ccc1-c1cc2c(cc1NC1CNC1)N1C(=NNC(=O)C1C)CO2 (racemic) [Example 13] | –
250 to 1000 | 1000 to 10000 | < 250 | CC1C(=O)NN=C2COc3cc(-c4ccc(C(F)(F)F)cc4)c(NC4CNC4)cc3N21 (racemic) [Example 14] | –
< 250 | 1000 to 10000 | < 250 | CC1C(=O)NN=C2COc3cc(-c4cccc(Cl)c4)c(NC4CNC4)cc3N21 (racemic) [Example 17] | –
< 250 | 1000 to 10000 | < 250 | Cc1ccc(-c2cc3c(cc2NC2CNC2)N2C(=NNC(=O)C2C)CO3)cc1F (racemic) [Example 18] | –
< 250 | 1000 to 10000 | < 250 | Cc1cccc(-c2cc3c(cc2NC2CNC2)N2C(=NNC(=O)C2C)CO3)c1 (racemic) [Example 22] | –
< 250 | 1000 to 10000 | < 250 | CC1C(=O)NN=C2COc3cc(-c4ccc(F)c(F)c4)c(NC4CNC4)cc3N21 (racemic) [Example 23] | –
250 to 1000 | 1000 to 10000 | < 250 | CC1C(=O)NN=C2COc3cc(-c4cccc(C(F)(F)F)c4)c(NC4CNC4)cc3N21 (racemic) [Example 24] | –
< 250 | 1000 to 10000 | < 250 | CC1C(=O)NN=C2COc3cc(-c4ccc(Cl)c(Cl)c4)c(NC4CNC4)cc3N21 (racemic) [Example 25] | –
< 250 | 1000 to 10000 | < 250 | CC1C(=O)NN=C2COc3cc(-c4ccccc4OC(F)(F)F)c(NC4CNC4)cc3N21 (racemic) [Example 27] | –
< 250 | 1000 to 10000 | < 250 | CC1C(=O)NN=C2COc3cc(-c4ccccc4C(F)(F)F)c(NC4CNC4)cc3N21 (racemic) [Example 28] | –
< 250 | 1000 to 10000 | < 250 | Cc1ccc(-c2cc3c(cc2NC2CNC2)N2C(=NNC(=O)C2C)CO3)cc1 (racemic) [Example 29] | –
– | 1000 to 10000 | 250 to 1000 | C[C@H]1C(=O)NN=C2COc3cc(C(F)(F)F)c(NC4CNC4)cc3N21 (single isomer, unassigned) [Example 53-1, trifluoroacetic acid] | –
1000 to 10000 | 1000 to 10000 | – | Cc1cc2c(cc1NC1(C)CNC1)N1C(=NNC(=O)C1C)CO2 (stereo not drawn) [Example 98, 4,7-Dimethyl-6-(3-methyl-azetidin-3-ylamino)-2,10-dihydro-9-oxa-1,2,4a-triaza-phenanthren-3-one trifluoroacetic acid] | –
250 to 1000 | 1000 to 10000 | – | CC1NCC1Nc1ccc2c(c1)N1C(=NNC(=O)C1C)CO2 (stereo not drawn) [Example 118, 4-Methyl-6-(2-methyl-azetidin-3-ylamino)-2,10-dihydro-9-oxa-1,2,4a-triaza-phenanthren-3-one trifluoroacetic acid] | –
250 to 1000 | 1000 to 10000 | – | C[C@H]1C(=O)NN=C2COc3cc4ccn([C@]5(C)CCNC5)c4cc3N21 [Example 165, (S)-1-Methyl-10-((R)-3-methyl-pyrrolidin-3-yl)-3,5-dihydro-10H-6-oxa-3,4,10,11b-tetraaza-cyclopenta[b]phenanthren-2-one] | –
250 to 1000 | 1000 to 10000 | – | CC1C(=O)NN=C2COc3cc(-c4ccccc4F)c(N4CC5CCC4CN5)cc3N21 (stereo not drawn) [Example 229] | –
